These are literature values, as cited in US8288391B2, “Pyrazinoylguanidine compounds for use as taste modulators” (Parion Sciences, Inc., priority 2007, dated 2012).

The series deals with T1, ENaC (Rattus norvegicus, UniProt P37089+P37090+P37091).
T1 construct: receptor cells in taste buds and some surrounding non-taste epithelia) through apical membrane ENaC; host or cells: rat in vivo: taste nerve (chorda tympani) response, with endogenous channel of lingual taste receptor cells
T1 sequence (P37089 1-698): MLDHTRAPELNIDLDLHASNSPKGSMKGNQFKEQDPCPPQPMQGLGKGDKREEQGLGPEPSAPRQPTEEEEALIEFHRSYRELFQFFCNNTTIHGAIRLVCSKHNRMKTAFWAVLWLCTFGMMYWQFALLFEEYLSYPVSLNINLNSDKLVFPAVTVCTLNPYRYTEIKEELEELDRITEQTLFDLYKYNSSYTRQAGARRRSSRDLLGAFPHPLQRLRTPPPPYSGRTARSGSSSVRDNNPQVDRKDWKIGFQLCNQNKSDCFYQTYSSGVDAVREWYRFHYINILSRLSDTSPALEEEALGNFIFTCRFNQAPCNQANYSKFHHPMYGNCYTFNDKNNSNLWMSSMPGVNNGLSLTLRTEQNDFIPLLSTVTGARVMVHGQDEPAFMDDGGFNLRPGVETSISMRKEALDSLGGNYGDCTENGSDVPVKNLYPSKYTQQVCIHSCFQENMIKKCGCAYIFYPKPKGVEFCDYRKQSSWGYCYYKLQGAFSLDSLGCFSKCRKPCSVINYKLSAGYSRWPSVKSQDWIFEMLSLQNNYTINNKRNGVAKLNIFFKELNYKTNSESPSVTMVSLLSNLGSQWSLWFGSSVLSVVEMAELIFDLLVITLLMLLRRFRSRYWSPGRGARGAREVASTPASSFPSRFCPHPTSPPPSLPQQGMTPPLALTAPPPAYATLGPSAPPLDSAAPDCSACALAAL
T1 sequence (P37090 1-638): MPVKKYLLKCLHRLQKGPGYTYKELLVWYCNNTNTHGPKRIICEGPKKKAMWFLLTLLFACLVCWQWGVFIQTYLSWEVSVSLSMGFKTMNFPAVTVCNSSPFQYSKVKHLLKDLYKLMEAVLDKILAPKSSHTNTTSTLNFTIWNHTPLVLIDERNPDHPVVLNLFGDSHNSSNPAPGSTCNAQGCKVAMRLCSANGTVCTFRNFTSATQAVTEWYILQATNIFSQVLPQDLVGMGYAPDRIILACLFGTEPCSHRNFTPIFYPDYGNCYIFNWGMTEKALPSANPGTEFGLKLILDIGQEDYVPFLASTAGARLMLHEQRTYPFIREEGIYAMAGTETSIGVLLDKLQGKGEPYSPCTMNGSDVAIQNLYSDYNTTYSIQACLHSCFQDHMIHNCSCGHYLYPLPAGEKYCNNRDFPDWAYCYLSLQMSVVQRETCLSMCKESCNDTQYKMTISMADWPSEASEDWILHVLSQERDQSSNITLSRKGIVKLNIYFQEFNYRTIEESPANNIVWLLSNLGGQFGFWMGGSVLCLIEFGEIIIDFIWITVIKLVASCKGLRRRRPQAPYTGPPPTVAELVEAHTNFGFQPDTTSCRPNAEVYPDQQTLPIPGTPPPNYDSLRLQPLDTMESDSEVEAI
T1 sequence (P37091 1-650): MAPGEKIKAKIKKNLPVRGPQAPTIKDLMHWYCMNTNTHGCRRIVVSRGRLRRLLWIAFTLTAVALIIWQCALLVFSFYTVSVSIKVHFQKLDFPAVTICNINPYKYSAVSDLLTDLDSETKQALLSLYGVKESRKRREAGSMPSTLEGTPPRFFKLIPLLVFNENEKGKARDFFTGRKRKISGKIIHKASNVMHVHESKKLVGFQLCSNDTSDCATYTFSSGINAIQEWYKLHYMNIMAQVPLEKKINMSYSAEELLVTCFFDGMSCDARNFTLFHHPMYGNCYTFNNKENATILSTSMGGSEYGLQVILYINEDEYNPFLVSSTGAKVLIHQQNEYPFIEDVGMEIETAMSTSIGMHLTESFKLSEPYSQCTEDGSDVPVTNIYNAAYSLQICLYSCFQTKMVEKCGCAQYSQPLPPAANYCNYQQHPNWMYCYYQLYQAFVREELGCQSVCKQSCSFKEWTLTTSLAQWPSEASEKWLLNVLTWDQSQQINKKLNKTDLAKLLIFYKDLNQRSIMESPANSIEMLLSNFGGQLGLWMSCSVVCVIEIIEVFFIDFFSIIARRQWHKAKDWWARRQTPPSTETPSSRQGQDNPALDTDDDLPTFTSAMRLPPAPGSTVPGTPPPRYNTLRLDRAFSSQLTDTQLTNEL
The following applies: rats; 100 mM NaCl; share of total taste response.

On to `N=C(N)NC(=O)c1nc(Cl)c(N)nc1N` [amiloride], for which the “amiloride-sensitive part of the total response to NaCl” value is recorded as 75%-80%.
